Source: US6548270B1, “DNA encoding human acid-sensing ion channel BNaC4 (ASIC4)” (Ortho-McNeil Pharmaceutical, Inc., priority 2000, dated 2003)
pIC50: −log10 of the molar value.

Experiments:
Rat ASIC3 = target: T1, Rat ASIC3 (Rattus norvegicus, UniProt O35240); details: cited from earlier work
T1 sequence (O35240 1-533): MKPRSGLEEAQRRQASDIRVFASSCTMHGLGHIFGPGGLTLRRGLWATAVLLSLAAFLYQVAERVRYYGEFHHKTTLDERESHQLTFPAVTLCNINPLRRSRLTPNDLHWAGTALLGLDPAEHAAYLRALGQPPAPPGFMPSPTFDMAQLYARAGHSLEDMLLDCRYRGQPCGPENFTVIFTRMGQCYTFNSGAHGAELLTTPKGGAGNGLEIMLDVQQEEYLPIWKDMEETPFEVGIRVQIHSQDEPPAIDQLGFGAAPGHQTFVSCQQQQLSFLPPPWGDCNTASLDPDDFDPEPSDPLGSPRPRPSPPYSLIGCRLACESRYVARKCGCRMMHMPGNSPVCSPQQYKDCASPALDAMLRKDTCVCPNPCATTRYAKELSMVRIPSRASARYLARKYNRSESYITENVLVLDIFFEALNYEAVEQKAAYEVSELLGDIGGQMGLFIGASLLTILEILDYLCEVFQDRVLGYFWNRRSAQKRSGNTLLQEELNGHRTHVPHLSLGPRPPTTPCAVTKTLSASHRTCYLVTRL

ASIC2a = ASIC2a gain of function mutant channels; cited from earlier work
human BNaC4 = target: T2, human BNaC4 (Homo sapiens, UniProt Q96FT7); assay: pH 5.5-induced whole cell current in Xenopus oocytes injected with human BNaC4 cRNA (two-electrode voltage clamp); type: cell-based; details: 200 uM amiloride, bath application; oocytes injected with hBNaC4 cRNA; n=3
T2 sequence (Q96FT7 1-539): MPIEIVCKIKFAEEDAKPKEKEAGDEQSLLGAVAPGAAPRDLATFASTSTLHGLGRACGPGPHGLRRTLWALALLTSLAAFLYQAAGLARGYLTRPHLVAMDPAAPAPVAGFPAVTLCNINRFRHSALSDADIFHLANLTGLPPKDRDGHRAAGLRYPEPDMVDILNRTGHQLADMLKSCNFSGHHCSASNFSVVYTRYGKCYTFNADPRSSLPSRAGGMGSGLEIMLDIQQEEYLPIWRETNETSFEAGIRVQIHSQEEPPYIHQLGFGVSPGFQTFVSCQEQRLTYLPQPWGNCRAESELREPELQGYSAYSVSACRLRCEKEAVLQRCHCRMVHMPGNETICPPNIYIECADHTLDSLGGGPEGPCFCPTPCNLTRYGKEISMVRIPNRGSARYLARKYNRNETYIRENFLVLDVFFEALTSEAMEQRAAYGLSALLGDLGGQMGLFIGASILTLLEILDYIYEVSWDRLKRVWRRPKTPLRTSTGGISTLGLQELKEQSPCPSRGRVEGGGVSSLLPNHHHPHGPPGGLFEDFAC
Protocol: Xenopus laevis oocytes were prepared and injected using standard methods previously described and known in the art (Fraser et al., 1993). Ovarian lobes from adult female Xenopus laevis (Nasco, Fort Atkinson, Wis.) were teased apart, rinsed several times in nominally Ca-free saline containing: 82.5 mM NaCl, 2.5 mM KCl, 1 mM MgCl2, 5 mM HEPES, adjusted to pH 7.0 with NaOH (OR-2), and gently shaken in OR-2 containing 0.2% collagenase Type 1 (ICN Biomedicals, Aurora, Ohio) for 2-5 hours. When approximately 50% of the follicular layers were removed, Stage V and VI oocytes were selected and rinsed in media consisting of 75% OR-2 and 25% ND-96. […]
Oocytes were injected with 50 nl of the human BNaC4 RNA (0.002-5 ng). […] Whole cell agonist (protons)-induced currents were measured 1-6 days after injection with a conventional two-electrode voltage clamp (GeneClamp50O, Axon Instruments, Foster City, Calif.) using standard methods previously described and known in the art (Dascal, Nathan (1987) The use of Xenopus oocytes for the study of ion channels. CRC Critical reviews in Biochemistry 22:317-387). […]
Functional expression of human BNaC4 in Xenopus oocytes is shown: activation by pH 5.5. […] The oocyte was recorded 3 days after injection of 2 ng hBNaC CRNA. […] The BNaC4 oocytes tested produced currents of at least +60 nA (measured at +80 mV at the end of a voltage ramp protocol) (range +60 to +1240 nA). […]

## N=C(N)NC(=O)c1nc(Cl)c(N)nc1N [amiloride]
Rat ASIC3; rat ASIC3 fast component, read-out: Amiloride sensitivity, K0.5, fast component
  pIC50: ~4.22
Rat ASIC3; rat ASIC3 slow component
  effect of amiloride on slow component: potentiated by amiloride (Waldmann
ASIC2a
  Amiloride sensitivity (block of channels): Amiloride blocked gain of function
Human BNaC4
  block of the pH5.5-induced fast increase in conductance: 40+/−13%
